“And” between values parts separate entries of the source, which are not always exact repeats. Equal entries are not always repeated.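 Method: 48-hour compound exposure of cells in 96-well plates, five concentrations, linear interpolation of endpoints. GI50 marks 50% less growth. At the TGI there is no net growth.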
Assays:
Experiment in all cases: inhibition of tumour cell growth, NCI panel, 48 h
OVCAR-8 ovarian = system: OVCAR-8 ovarian
NCI-H23 lung = system: NCI-H23 lung
TK-10 renal = system: TK-10 renal
BT-549 breast = system: BT-549 breast
UACC-62 melanoma = system: UACC-62 melanoma
HCT-116 colon = system: HCT-116 colon
LOX IMVI melanoma = system: LOX IMVI melanoma
DU-145 prostate = system: DU-145 prostate
MCF7 breast = system: MCF7 breast
EKVX NSCLC = system: EKVX NSCLC

Compound	TGI (OVCAR-8 ovarian)	GI50 (NCI-H23 lung) [µM]	TGI (NCI-H23 lung)	GI50 (TK-10 renal) [µM]	TGI (TK-10 renal)	GI50 (BT-549 breast) [µM]	TGI (BT-549 breast) [µM]	GI50 (UACC-62 melanoma)	TGI (UACC-62 melanoma)	TGI (HCT-116 colon)	TGI (LOX IMVI melanoma)	GI50 (DU-145 prostate) [µM]	TGI (DU-145 prostate) [µM]	TGI (MCF7 breast) [µM]	GI50 (EKVX NSCLC) [µM]	TGI (EKVX NSCLC)	GI50 (OVCAR-8 ovarian)	GI50 (HCT-116 colon) [µM]	GI50 (LOX IMVI melanoma) [µM]	GI50 (MCF7 breast) [µM]
CN1CC[C@]2(c3cccc(O)c3)CC(=O)/C(=C/c3ccccc3)[C@H]1C2	9.46 µM	2.87	10.8 µM	6.32	13.2 µM	3.64	14.5	3.06 µM	12.7 µM	7.29 µM	4.1 µM	3.14	11.3	10.4	3.57	13.9 µM				
CCN(CC)CCOc1ccc(/C=C2\C[C@H]3[C@H]4CC=C5C[C@@H](O)CC[C@]5(C)[C@H]4CC[C@]3(C)[C@H]2O)cc1OC	26.5 µM	11.2	23.9 µM	5.49	11.5 µM			7.53 µM	14.5 µM	> 50 µM	15.3 µM	3.86	10.2	> 50			12.9 µM	14.6	7.7	12.4
O=C(NNc1ccc(F)cc1)C1CCC(CNS(=O)(=O)c2ccc(Cl)c(Cl)c2)CC1 (stereo not given)	35.6 µM			1.74	16.4 µM	19.1	> 50	1.98 µM	23.4 µM	33.9 µM	14.4 µM	5.52	> 50	> 50	7.98	> 50 µM	8.79 µM	6.51	2.08	7.73
COc1cc2nc(-c3ccc(Cl)cc3)cc(OCCCN3CCCC3)c2cc1OC	16.1 µM	2.45	12.1 µM	2.33	7.41 µM	1.77	7.37	2.03 µM	4.57 µM	10.1 µM	0.446 µM	2.15	13.8	3.07	1.21	12 µM	1.19 µM	0.699	0.191	1.33
CN(C)CCC=C1c2ccccc2C(C)(C)c2ccccc21	37.6 µM	14	28.9 µM	18.4	37 µM			11.6 µM	27 µM	22.4 µM	22 µM	14.3	27.3	22.5	14.4	30 µM	18.6 µM	10.3	9.46	10.2
O=c1c2cccc(F)c2sc2c(N3CCNCC3)nc3ccccc3c12	3.42 µM	1.57	3.1 µM			1.58	3.06	1.66 µM	3.16 µM	2.16 µM	2.81 µM	1.4	2.76	2.66	1.59	2.99 µM	1.51 µM	0.931	1.42	1.17
COC1=C(Br)C(O)C2(C=C1Br)CC(C(=O)NCCCCNC(=O)C1=NOC3(C=C(Br)C(OC)=C(Br)C3O)C1)=NO2 (stereo not given)	> 100 µM		> 100 µM		> 100 µM		> 100		> 100 µM	49.3 µM	35.1 µM		> 100	87.4						
NC1CCC(Nc2nc(NCc3cc(Cl)ccc3O)c3ncn(C4CCCC4)c3n2)CC1 (stereo not given)		0.153	0.478 µM	0.332	0.979 µM	0.262	0.877	0.149 µM	0.335 µM	0.66 µM	5 µM	0.207	1.02	0.318	0.262	0.928 µM		0.0644	0.537	0.104
CCOC(=O)c1ccc2c(c1)nc(/C=C/c1ccc(Cl)cc1)n2-c1cc(C(C)(C)C)[nH]n1	33.9 µM	19.3	> 100 µM	3.11	7.2 µM	4.54	25.6	1.47 µM	4.79 µM	12.4 µM		21.5	> 100	10.2			5.31 µM	3.42		2.71
O=C1C(Nc2ccc(Br)cc2)=C(I)C(=O)c2ncccc21	1.69 µM	0.829	2.14 µM	3.54	9.74 µM	1.85	5.9	1.16 µM	2.96 µM	1.08 µM	1.41 µM	1.14	4.26		3.08	9.52 µM	0.809 µM	0.336	0.668	
NS(=O)(=O)c1ccc(NCc2cnc3ccccc3n2)cc1	> 100 µM		> 100 µM		> 100 µM		> 100		> 100 µM	> 100 µM			> 100	> 100		> 100 µM				
COc1ccc(-c2nc(Nc3ccc(-c4nc5ccccc5[nH]4)cc3)nc(N3CCOCC3)n2)cc1	10.8 µM	2.57	9.9 µM	2.91	8.54 µM					3.54 µM		4.54	> 100	> 100	2.6	> 100 µM	3.26 µM	1.9		2.59
C[C@]12CC[C@H]3[C@@H](CCC4=CC(=O)CC[C@@]43C)[C@@H]1CC[C@@H]2C(=O)COS(=O)(=O)c1ccc(Br)cc1	14.3 µM		8.62 µM		34.5 µM		50.5		37.8 µM	22.7 µM			34.4	22.5		21.3 µM				
CSCC[C@H](NC(=O)[C@H](CC(C)C)NC(=O)[C@@H](Cc1ccccc1)NC(=O)CNC(=O)[C@@H](NC(=O)[C@H](C)NC(=O)[C@H](Cc1c[nH]c2ccccc12)NC(=O)[C@H](CCC(N)=O)NC(=O)[C@H](N)CC(N)=O)C(C)C)C(N)=O	> 12.5 µM		> 12.5 µM		> 12.5 µM				> 12.5 µM	> 12.5 µM	> 12.5 µM		> 12.5	> 12.5		> 12.5 µM				
CCCC[n+]1c(/C=C\c2c(OC)cc(OC)cc2OC)ccc2ccccc21	7.69 µM	0.779	8.17 µM	1.55	6.26 µM	0.738	3.19	0.777 µM	2.34 µM	3.48 µM	2.58 µM	1.04	11.1	4.73			0.613 µM	0.413	0.827	0.494
NCCCCCCCCCCCn1c2c(c3ccccc3c1=O)C(=O)c1ccccc1-2		11.6	32 µM	3.14	8.97 µM	20.3	41.4	16.9 µM	35 µM		21.1 µM	4.6	14.8	37.9	22.5	45.7 µM			5	8.63
CO[C@]12C=C/C(=C(/C(=O)OCc3cccnc3)C(=O)CCCCCCCC[C@@]3(OC)C=C/C(=C(/C(=O)OCc4cccnc4)C(=O)CCCCCCCC1)O3)O2	> 50 µM	0.79	1.87 µM	2.93	18.9 µM	1.51	4.29			1.22 µM	1.6 µM	1.76	12.7	8.89	1.97	> 50 µM	0.959 µM	0.275	0.585	0.504
NCCCn1c2c(c3ccc([N+](=O)[O-])cc3c1=O)C(=O)c1cc(-c3ccccc3)ccc1-2	0.884 µM	1.29	2.88 µM			2.09	3.77	1.55 µM	3 µM	0.315 µM	2.59 µM	0.491	1.02	1.32	1.61	3.45 µM	0.31 µM	0.172	0.916	0.357
O=[N+]([O-])c1ccc(Sc2nc(Cl)nc(NC3CCCC3)n2)cc1	> 10 µM	> 10	> 10 µM	> 10	> 10 µM	> 10	> 10	> 10 µM	> 10 µM	> 10 µM	> 10 µM	7.99	> 10	> 10			> 10 µM	4.83	> 10	> 10
COc1cccc(-n2cc(-c3nc(Nc4cc(C)[nH]n4)c4ccccc4n3)nn2)c1	11.7 µM	6.28	22.4 µM	0.438	8.42 µM	7.04	13.5	2.86 µM	11.3 µM	10.5 µM	12.3 µM	5.51	11.7	14			2.88 µM	2.1	5.15	4.76
C=C1COC(O)(C2OCOC(C3CC(=O)NC(=O)C3)C2O)C1C (stereo not given)	0.0413 µM and 0.0509 µM	0.00267	0.0144 µM and 0.0338 µM	0.00456	0.0539 µM and 0.0498 µM	0.0187	0.0739	0.00275 µM and 0.0134 µM	0.0247 µM and 0.131 µM	0.0337 µM and 0.0335 µM	0.00553 µM and 0.0217 µM	0.0125	0.0616		0.00507	0.04 µM and 0.266 µM	0.00425 µM and 0.0104 µM	0.00288	0.00234	
O=C(O)C1C2C=CC(C2)C1C(=O)O (stereo not given)	> 100 µM					> 100	> 100	> 100 µM	> 100 µM	> 100 µM	> 100 µM	> 100	> 100	> 100			> 100 µM	> 100	> 100	> 100
Cn1cc(-c2csc(-c3cn(CCCCN4CCCCC4)c4ccc(F)cc34)n2)c2cccnc21		1.69	3.2 µM	1.58	2.92 µM	1.67	3.13					1.76	3.14							
C=C1CC[C@@H]2[C@](C)(COC(C)=O)[C@H](OC(C)=O)CC[C@@]2(C)[C@@H]1CC(Nc1ccc(S(=O)(=O)Nc2cc(C)on2)cc1)C1=CCOC1=O (stereo not given in full)	4.3 µM	2.31	5.9 µM	3.04	7.11 µM	1.79	3.47	2.13 µM	7.06 µM	2.39 µM	2.54 µM	2.43	6.53		11	25.9 µM	1.88 µM	1.12	1.18	
COC(=O)NN1C(C)=C(C(=O)OC)C2(C#N)C(C(=O)OC)=C(C)N(NC(=O)OC)C12N (stereo not given)	> 100 µM		> 100 µM		> 100 µM				> 100 µM	> 100 µM	> 100 µM					> 100 µM				
N#Cc1ccsc1NC(=O)COC(=O)c1cccc(S(=O)(=O)N2CCc3ccccc32)c1		38.9	> 100 µM	> 100	> 100 µM	34	> 100	32 µM	> 100 µM	> 100 µM	> 100 µM	33.7	> 100	> 100	68.3	> 100 µM		4.78	7.69	19.8
Cc1cccc2nc3cccc(C(=O)NCCNCCNCCNC(=O)c4cccc5nc6cccc(C)c6nc45)c3nc12	1.14 µM	< 0.012	0.938 µM	< 0.0147	0.846 µM	1.73	6.25	0.0137 µM	2.01 µM	> 35.8 µM	0.53 µM			> 33	0.291	16.3 µM	< 0.01 µM	< 0.01	< 0.01	< 0.01
CNc1cc2nc3cc(NC)c(C)cc3cc2cc1C	9.83 µM	0.624	3.11 µM	3.55	16.2 µM	3.48	14.3	8.82 µM	34.5 µM	1.49 µM	1.79 µM	0.861	11.5		1.04	8.48 µM	0.754 µM	0.365	0.446	
COC(=O)NC(=Nc1ccc(Oc2ccccc2)cc1NC=O)NC(=O)OC	8.57 µM		> 100 µM		> 100 µM				> 100 µM	28 µM	> 100 µM					> 100 µM				
